From patent publication US10800789B2, “Antiviral compounds” (Gilead Pharmasset LLC, priority 2012, dated 2020)
Where two headings read alike, the source gives them in different places.

What was measured:
[1] = tested on: stable HCV 1b RLuc replicon cells (dicistronic genotype 1b Con1 replicon); assay: Renilla luciferase HCV replicon reporter assay, genotype 1b; type: cell-based; conditions: stable 1b Con1 RLuc replicon cells, 72 hours, read-out: 1b
How it was run: (§1)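 Antiviral EC50 was determined in HCV replicon cells (stable RLuc lines for 1a H77, 1b Con1, 2a JFH-1 with NS5A L31; J6 NS5A chimera with M31) treated 72 h with compound. Renilla luciferase was then quantified.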

[2] = tested on: NS5A chimeric genotype 2a JFH-1 replicon with genotype 2b MD2b-1 strain NS5A gene (M31 present); assay: Replicon assay, genotype 2b NS5A chimera; type: cell-based, HCV
How it was run: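 Cells carrying the stable or transiently transfected (Huh-Lunet) dicistronic RLuc replicons received 3-fold serial compound dilutions from 10 mM DMSO stocks. After 72 h, cells were lysed and Renilla luciferase read. DMSO served as the no-inhibition control and ITMN-191 above 100×EC50 as the positive control; EC50 by non-linear regression.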

[3] = tested on: NS5A chimeric genotype 1b Con1 replicon with genotype 4a ED43 strain NS5A gene; assay: Replicon assay, genotype 4a NS5A chimera; type: cell-based, HCV
[4] = tested on: Q30R in genotype 1a NS5A (1a Pi-Rluc replicon, Huh-7-derived cured-51 cells); assay: Replicon assay against resistance mutant 1a Q30R; type: cell-based, HCV
How it was run: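 Q30R introduced by site-directed mutagenesis into the 1a Pi-RLuc replicon; replicon RNA transiently transfected into cured-51 cells. Cells treated with 3-fold serially diluted compound for 72 h, then lysed and Renilla luciferase measured; EC50 by non-linear regression.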

[5] = IV and PO single dose pharmacokinetic studies in SD rats; type: in vivo, male Sprague-Dawley (SD) rats; conditions: male SD rats, PO 2 mg/kg vs IV infusion 1 mg/kg; for bioavailability: Sprague-Dawley, rat, plasma, read-out: Rat % F
Description: IV and PO Single Dose Pharmacokinetic Studies in SD Rats:
The pharmacokinetics of selected compounds was characterized in male Sprague-Dawley (SD) rats (250-300g). In this study, two groups of naïve purebred SD rats (N=3 per group, fasted over night) received the selected compound either as an intravenous (IV) infusion (1 mg/kg over 30 minutes) via the jugular vein or by oral gavage (2 mg/kg). The intravenous (IV) dosing vehicle was 5% ethanol, 35% polyethylene glycol 400 (PEG 400) and 60% water pH 2.0. The oral dosing vehicle was 5% ethanol, 55% PEG 400 and 40% citrate buffer pH 2.2.
Serial blood samples (approximately 0.3 mL each) were collected from jugular vein or other suitable vein at specified time points. For the IV infusion group, the blood samples were collected predose and at 0.25, 0.48, 0.58, 0.75, 1.5, 3, 6, 8, 12 and 24 hours after the start of infusion. For the oral group, the blood samples were collected predose and at 0.25, 0.50, 1, 2, 4, 6, 8, 12 and 24 hours after dosing. The blood samples were collected into VacutainerγM tubes containing EDTA-K3 as the anti-coagulant and were centrifuged at approximately 4° C. to obtain plasma. The plasma samples were stored at −20° C. until analysis by LC/MS/MS.
A bioanalytical method utilizing high performance liquid chromatography coupled to tandem mass spectrometry (LC/MS/MS) was developed for analysis of the selected compound in rat plasma. Detection was performed using selected reaction monitoring (SRM); Ions representing the precursor (M+H)^+ species was selected in quadrupole 1 (Q1) and collided with argon gas in the collision cell (Q2) to generate specific product ion, which was subsequently monitored by quadrupole 3 (Q3). Standard curve and quality control samples were prepared in male rat plasma and processed in the same way as the test samples to generate quantitative data.
Pharmacokinetic parameters were generated using non-compartmental pharmacokinetic analysis (Phoenix WinNonlin, version 6.3). Values below the lower limit of quantification (LLOQ) were assigned a value of zero if predose and treated as missing thereafter. Area under the curve (AUC) was calculated using the linear trapezoidal rule. The oral bioavailability (% F) was determined by comparison of the area under the curve (AUC) of the compound and/or a metabolite generated in plasma following oral administration to that generated following intravenous administration.

[6] = tested on: NS5A chimeric genotype 1b Con1 replicon with genotype 3a S52 strain NS5A gene; assay: Replicon assay, genotype 3a NS5A chimera; type: cell-based, HCV
[7] = tested on: stable HCV 2a JFH-1 Rluc replicon cells (L31 present in NS5A); assay: Renilla luciferase HCV replicon reporter assay, genotype 2a JFH-1; type: cell-based
How it was run: as §1

[8] = tested on: NS5A chimeric genotype 2a JFH-1 replicon with genotype 2a J6 strain NS5A gene (M31 present); assay: Replicon assay, genotype 2a J6 NS5A chimera; type: cell-based, HCV
How it was run: as §1

[9] = tested on: stable HCV 1a RLuc replicon cells (dicistronic genotype 1a H77 replicon); assay: Renilla luciferase HCV replicon reporter assay, genotype 1a; type: cell-based; conditions: stable 1a H77 RLuc replicon cells
How it was run: as §1

[10] = Hepatitis C virus, 2BS, read-out: 2b (s), stably replicating replicon cells (s), activity range
[11] = Hepatitis C virus, read-out: 2b (s) (nM), genotype 2b MD2b-1 NS5A chimeric replicon (M31), stably replicating replicon cells (s)
[12] = Hepatitis C virus, read-out: 2b (t) (nM), genotype 2b MD2b-1 NS5A chimeric replicon (M31), transiently transfected (t)
[13] = Hepatitis C virus, read-out: 4a (s) (nM), genotype 4a NS5A chimeric replicon, stable replicon cells (s)
[14] = Hepatitis C virus, read-out: 4a (s), (s), activity range
[15] = Hepatitis C virus, read-out: 1a Q30R
[16] = Hepatitis C virus, read-out: 1a Q30R (nM)
[17] = Hepatitis C virus, read-out: 3a (s) (nM), genotype 3a NS5A chimeric replicon, stable replicon cells (s)
[18] = Hepatitis C virus, read-out: 3a (s), (s), activity range
[19] = Hepatitis C virus, read-out: 2a JFH (nM), genotype 2a JFH-1 replicon (L31 in NS5A), stable cells
[20] = Hepatitis C virus, read-out: 2a JFH, stable 2a JFH-1 Rluc replicon cells, L31 in NS5A, activity range
[21] = Hepatitis C virus, read-out: 2a J6 (t) (nM), genotype 2a J6 NS5A chimeric replicon (M31), transiently transfected (t) into Huh-Lunet cells
[22] = Hepatitis C virus, read-out: 2a J6 (t), transiently transfected (t) into Huh-Lunet cells, activity range
[23] = Hepatitis C virus, 72 h, activity range

Row | Compound | EC50 ([1]; Hepatitis C virus, 72 h) | EC50 [2, 10] | EC50 [2, 11] | EC50 [2, 12] | EC50 [3, 13] | EC50 [3, 14] | EC50 [4, 15] | EC50 [4, 16] | bioavailability [5] | EC50 [6, 17] | EC50 [6, 18] | EC50 [7, 19] | EC50 [7, 20] | EC50 [8, 21] | EC50 [8, 22] | EC50 ([9]; Hepatitis C virus, 72 h) | EC50 [9, 23] | also measured
1 | COC(=O)N[C@H](C(=O)N1[C@@H](C)CC[C@H]1c1ncc(-c2ccc3c(c2)COc2cc4c(ccc5nc([C@@H]6CC[C@H](C)N6C(=O)[C@@H](NC(=O)OC)[C@@H](C)OC)[nH]c54)cc2-3)[nH]1)C(C)C [DX, Methyl {(2S)-1-[(2S,4S)-2-(5-{2-[(2S,5S)-1-{(2S,3R)-3-methoxy-2-[(methoxycarbonyl)amino]butanoyl}-5-methylpyrrolidin-2-yl]-1,11-dihydroisochromeno[4′,3′:6,7]naphtho[1,2-d]imidazol-9-yl}-1H-imidazol-2-yl)-5-methylpyrrolidin-1-yl]-3-methyl-1-oxobutan-2-yl}carbamate] | – | – | – | – | – | – | – | – | – | – | – | – | – | – | – | – | – | EC50 [1]: 31 pM; EC50 ([2]; genotype 2b MD2b-1 NS5A chimeric replicon (M31), stably replicating replicon cells (s), read-out: 2b (s)): 0.201 nM; EC50 ([2]; genotype 2b MD2b-1 NS5A chimeric replicon (M31), transiently transfected (t), read-out: 2b (t)): 0.06 nM; EC50 ([2]; stably replicating replicon cells (s), activity range, read-out: 2b (s)): 0.1 to 0.999 nM; EC50 ([2]; transiently transfected (t) into Huh-Lunet cells, activity range, read-out: 2b (t)): < 0.1 nM; EC50 ([3]; (s), activity range, read-out: 4a (s)): < 0.1 nM; EC50 ([3]; genotype 4a NS5A chimeric replicon, stable replicon cells (s), read-out: 4a (s)): 0.018 nM; EC50 ([4]; Q30R mutant replicon transiently transfected into Huh-7-derived cured-51 cells, activity range, read-out: 1a Q30R): 0.1 to 0.999 nM; EC50 ([4]; Q30R mutant replicon transiently transfected into Huh-7-derived cured-51 cells, read-out: 1a Q30R): 0.138 nM; Rat % F ([5]; oral bioavailability): 21.3%; EC50 ([6]; (s), activity range, read-out: 3a (s)): < 0.1 nM; EC50 ([6]; genotype 3a NS5A chimeric replicon, stable replicon cells (s), read-out: 3a (s)): 0.048 nM; EC50 ([7]; genotype 2a JFH-1 replicon (L31 in NS5A), stable cells, read-out: 2a JFH): 0.019 nM; EC50 ([7]; stable 2a JFH-1 Rluc replicon cells, L31 in NS5A, activity range, read-out: 2a JFH): < 0.1 nM; EC50 ([8]; genotype 2a J6 NS5A chimeric replicon (M31), transiently transfected (t) into Huh-Lunet cells, read-out: 2a J6 (t)): 0.109 nM; EC50 ([8]; transiently transfected (t) into Huh-Lunet cells, activity range, read-out: 2a J6 (t)): 0.1 to 0.999 nM; EC50 ([9]; 72 hours): 21 pM; EC50 ([9]; 72 hours, activity range): < 100 pM
2 | COC(=O)NC(C(=O)N1[C@@H](C)CC[C@H]1c1nc2ccc3cc4c(cc3c2[nH]1)OCc1cc(-c2cnc([C@@H]3CC[C@H](C)N3C(=O)[C@@H](NC(=O)OC)C3CCOCC3)[nH]2)ccc1-4)C1CCOCC1 (stereo partly drawn) [EB, Methyl [(1 S)-2-[(2S,5S)-2-(5-{2-[(2S,5S)-1-{[(methoxycarbonyl)amino](tetrahydro-2H-pyran-4-yl)acetyl}-5-methylpyrrolidin-2-yl]-1,11-dihydroisochromeno[4′,3′:6,7]naphtho[1,2-d]imidazol-9-yl}-1H-imidazol-2-yl)-5-methylpyrrolidin-1-yl]-2-oxo-1-(tetrahydro-2H-pyran-4-yl)ethyl]carbamate] | 51 pM | < 0.1 nM | 0.038 nM | 0.092 nM | 0.014 nM | < 0.1 nM | < 0.1 nM | 0.042 nM | 4.2% | 0.075 nM | < 0.1 nM | 0.012 nM | < 0.1 nM | 0.012 nM | < 0.1 nM | 24 pM | < 100 pM | EC50 ([2]; Hepatitis C virus, read-out: 2b (t), transiently transfected (t) into Huh-Lunet cells, activity range): < 0.1 nM
3 | CC[C@H](C)C(NC(=O)OC)C(=O)N1[C@@H](C)CC[C@H]1c1nc2ccc3cc4c(cc3c2[nH]1)OCc1cc(-c2cnc([C@@H]3CC[C@H](C)N3C(=O)[C@@H](NC(=O)OC)[C@@H](C)OC)[nH]2)ccc1-4 (stereo partly drawn) [EH, methyl{(3S)-1-[(2S,5S)-2-(9-{2-[(2S,5S)-1-{(2S,3R)-3-methoxy-2-[(methoxycarbonyl)amino]butanoyl}-5-methylpyrrolidin-2-yl]-1H-imidazol-5-yl}-1,11-dihydroisochromeno[4′,3′:6,7]naphtho[1,2-d]imidazol-2-yl)-5-methylpyrrolidin-1-yl]-3-methyl-1-oxopentan-2-yl}carbamate] | 15 pM | 0.1 to 0.999 nM | 0.153 nM | – | 0.006 nM | < 0.1 nM | < 0.1 nM | 0.082 nM | 15.8% | 0.022 nM | < 0.1 nM | 0.013 nM | < 0.1 nM | 0.086 nM | < 0.1 nM | 11 pM | < 100 pM | EC50 ([6]; Hepatitis C virus, read-out: 3a (t) (nM), genotype 3a NS5A chimeric replicon, transiently transfected (t)): 0.024 nM; EC50 ([6]; Hepatitis C virus, read-out: 3a (t), transiently transfected (t) into Huh-Lunet cells, activity range): < 0.1 nM
4 | COC(=O)N[C@H](C(=O)N1[C@@H](C)CC[C@H]1c1ncc(-c2ccc3c(c2)COc2cc4c(ccc5nc([C@@H]6C[C@H](COC(F)F)CN6C(=O)[C@@H](NC(=O)OC)[C@@H](C)OC)[nH]c54)cc2-3)[nH]1)C(C)C [FO] | 9 pM | 0.1 to 0.999 nM | 0.164 nM | – | 0.007 nM | < 0.1 nM | 0.1 to 0.999 nM | 0.112 nM | 17.2% | 0.055 nM | < 0.1 nM | 0.008 nM | < 0.1 nM | – | – | 10 pM | < 100 pM | –
5 | CC[C@H](C)[C@H](NC(=O)OC)C(=O)N1[C@H](c2ncc(-c3ccc4c(c3)COc3cc5c(ccc6nc([C@@H]7CC[C@H](C)N7C(=O)[C@@H](NC(=O)OC)C7CCOCC7)[nH]c65)cc3-4)[nH]2)C[C@@H]2CCC[C@@H]21 [IL] | 34 pM | 0.1 to 0.999 nM | 0.143 nM | 0.025 nM | 0.04 nM | < 0.1 nM | < 0.1 nM | – | 40.9% | 0.083 nM | < 0.1 nM | 0.019 nM | < 0.1 nM | – | – | 28 pM | < 100 pM | –
